Data: ChEMBL document CHEMBL1201862, “PubChem BioAssay data set” (2004)
Active and inactive are the calls of the source.

Columns and labels:
[1] = nonselective StAR promoter luciferase inhibitors – cell-based, luminescence, luciferase reporter, counter-screen for LRH-1 inverse agonist project, dose response (AID 651969); type: functional
Steroidogenic factor 1 = Steroidogenic factor 1 (Homo sapiens, UniProt Q13285); test: Counterscreen for inverse agonists of the liver receptor homolog-1 (LRH-1; NR5A2): Luminescence-based cell-based high throughput dose response assay to identify inverse agonists of the Steroidogenic Factor 1 Nuclear Receptor (SF1; NR5A1).; type: functional
Chain of Steroidogenic factor 1 (Q13285 whole entry): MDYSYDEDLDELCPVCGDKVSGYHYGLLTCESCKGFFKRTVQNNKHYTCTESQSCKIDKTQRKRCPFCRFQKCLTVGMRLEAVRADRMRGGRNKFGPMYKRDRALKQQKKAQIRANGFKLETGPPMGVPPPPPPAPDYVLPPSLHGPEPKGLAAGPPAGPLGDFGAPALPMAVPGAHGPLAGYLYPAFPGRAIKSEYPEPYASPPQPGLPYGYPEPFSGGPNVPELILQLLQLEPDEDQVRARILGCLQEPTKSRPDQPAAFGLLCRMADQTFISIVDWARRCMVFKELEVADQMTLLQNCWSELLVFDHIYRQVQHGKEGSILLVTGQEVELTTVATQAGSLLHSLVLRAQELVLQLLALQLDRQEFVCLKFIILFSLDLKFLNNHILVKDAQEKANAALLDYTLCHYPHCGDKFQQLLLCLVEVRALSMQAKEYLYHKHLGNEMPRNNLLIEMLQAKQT

[2] = target: Nuclear receptor subfamily 5 group A member 2 (Homo sapiens, UniProt O00482); type: functional, cell-based;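 also: HEK293T cells transfected with LRH-1 and a StAR promoter luciferase reporter; potency for inhibitors that lower LRH-1 driven reporter light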
Chain of Nuclear receptor subfamily 5 group A member 2 (O00482 whole entry): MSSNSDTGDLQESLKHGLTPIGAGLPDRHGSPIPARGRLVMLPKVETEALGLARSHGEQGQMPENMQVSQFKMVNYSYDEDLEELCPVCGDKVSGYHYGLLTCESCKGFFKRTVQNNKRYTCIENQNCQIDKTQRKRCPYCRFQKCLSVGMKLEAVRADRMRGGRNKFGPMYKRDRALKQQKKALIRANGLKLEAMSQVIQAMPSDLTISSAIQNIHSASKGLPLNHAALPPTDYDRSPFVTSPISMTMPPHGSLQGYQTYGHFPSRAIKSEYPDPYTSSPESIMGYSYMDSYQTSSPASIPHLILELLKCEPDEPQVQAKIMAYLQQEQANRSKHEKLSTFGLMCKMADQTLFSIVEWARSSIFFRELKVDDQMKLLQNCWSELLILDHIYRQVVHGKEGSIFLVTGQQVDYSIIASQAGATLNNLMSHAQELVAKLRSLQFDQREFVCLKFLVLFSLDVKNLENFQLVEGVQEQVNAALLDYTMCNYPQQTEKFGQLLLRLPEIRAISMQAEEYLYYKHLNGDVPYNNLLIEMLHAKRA

[3] = microbe, parasite or virus in culture; type: functional; settings: Mycobacterium tuberculosis
[4] = target: T1, DNA repair and recombination protein RAD54-like (Homo sapiens, UniProt Q92698); test: RAD54 Holliday junction migration blockers – biochemical, fluorescence, cherry-picked samples, dose series, confirmation (AID 651657); type: functional
T1 sequence (Q92698 whole entry): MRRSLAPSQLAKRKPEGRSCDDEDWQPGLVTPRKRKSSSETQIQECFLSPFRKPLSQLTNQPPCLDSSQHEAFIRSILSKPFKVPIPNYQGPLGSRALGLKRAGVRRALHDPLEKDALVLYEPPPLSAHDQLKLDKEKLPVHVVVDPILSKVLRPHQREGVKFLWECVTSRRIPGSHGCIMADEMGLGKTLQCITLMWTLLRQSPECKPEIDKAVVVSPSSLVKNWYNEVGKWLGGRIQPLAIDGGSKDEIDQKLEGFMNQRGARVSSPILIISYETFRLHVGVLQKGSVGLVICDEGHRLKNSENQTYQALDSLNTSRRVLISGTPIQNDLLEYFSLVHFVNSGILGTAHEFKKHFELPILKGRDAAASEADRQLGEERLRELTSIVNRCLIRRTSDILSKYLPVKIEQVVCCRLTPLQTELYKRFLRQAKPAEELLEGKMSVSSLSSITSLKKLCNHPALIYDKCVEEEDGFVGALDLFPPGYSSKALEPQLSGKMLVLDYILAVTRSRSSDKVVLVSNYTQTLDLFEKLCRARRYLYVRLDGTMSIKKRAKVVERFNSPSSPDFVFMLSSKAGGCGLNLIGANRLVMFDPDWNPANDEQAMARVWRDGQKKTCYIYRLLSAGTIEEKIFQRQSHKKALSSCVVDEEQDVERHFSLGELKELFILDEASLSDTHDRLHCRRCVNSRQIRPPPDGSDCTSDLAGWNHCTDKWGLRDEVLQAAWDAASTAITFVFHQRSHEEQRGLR

[5] = blockers of CRF-binding protein–CRF-R2 complex – cell-based, uHTS hits, 384-well, dose response (AID 651639); type: functional, Homo sapiens; settings: read-out: IC50_Mean
[6] = target: T2, Corticotropin-releasing factor receptor 2/Corticotropin-releasing factor-binding protein (Homo sapiens, UniProt P24387+Q13324); test: activators of CRF receptor 2 with binding protein – uHTS hits, confirmation (AID 602473); type: functional; settings: read-out: EC50_Mean
T2 sequence (Q13324 whole entry): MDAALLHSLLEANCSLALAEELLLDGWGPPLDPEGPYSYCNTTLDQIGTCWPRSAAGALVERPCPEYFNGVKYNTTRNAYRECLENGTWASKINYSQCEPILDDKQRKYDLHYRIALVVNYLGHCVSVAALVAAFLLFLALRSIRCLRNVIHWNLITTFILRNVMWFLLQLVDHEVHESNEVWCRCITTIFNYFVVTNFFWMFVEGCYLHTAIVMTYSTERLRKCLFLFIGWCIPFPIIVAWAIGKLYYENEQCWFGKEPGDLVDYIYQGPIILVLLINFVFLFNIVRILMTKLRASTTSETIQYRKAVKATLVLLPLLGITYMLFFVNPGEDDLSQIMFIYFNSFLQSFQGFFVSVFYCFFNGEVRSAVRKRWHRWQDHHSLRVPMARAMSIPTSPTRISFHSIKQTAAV
T2 sequence (P24387 whole entry): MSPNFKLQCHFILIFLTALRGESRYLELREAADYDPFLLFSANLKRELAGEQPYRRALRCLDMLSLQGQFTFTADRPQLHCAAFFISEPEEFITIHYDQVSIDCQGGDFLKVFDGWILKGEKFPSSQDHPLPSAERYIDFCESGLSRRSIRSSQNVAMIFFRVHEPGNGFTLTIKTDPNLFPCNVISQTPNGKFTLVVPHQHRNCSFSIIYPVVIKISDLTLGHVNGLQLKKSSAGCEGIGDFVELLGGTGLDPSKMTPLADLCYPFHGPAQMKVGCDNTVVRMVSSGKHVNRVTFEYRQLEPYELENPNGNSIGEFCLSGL

[7] = target: T2, Corticotropin-releasing factor receptor 2/Corticotropin-releasing factor-binding protein; test: Dose Response confirmation of uHTS hits for small molecule antagonists of the CRF-binding protein and CRF-R2 receptor complex.; type: functional; settings: read-out: IC50_Mean
HEK293 [8] = test: optical interference in Abeta FP readout, dose response, artefact control for IDE activator project, biochemical, fluorescence polarization (AID 588442); type: functional, cell-based; settings: Homo sapiens
Insulin-degrading enzyme [9] = target: T3, Insulin-degrading enzyme (Homo sapiens, UniProt P14735); test: cellular IDE activation of Abeta substrate cleavage – fluorescence polarization, HEK cells, dose response (AID 588439); type: functional, cell-based
T3 sequence (P14735 whole entry): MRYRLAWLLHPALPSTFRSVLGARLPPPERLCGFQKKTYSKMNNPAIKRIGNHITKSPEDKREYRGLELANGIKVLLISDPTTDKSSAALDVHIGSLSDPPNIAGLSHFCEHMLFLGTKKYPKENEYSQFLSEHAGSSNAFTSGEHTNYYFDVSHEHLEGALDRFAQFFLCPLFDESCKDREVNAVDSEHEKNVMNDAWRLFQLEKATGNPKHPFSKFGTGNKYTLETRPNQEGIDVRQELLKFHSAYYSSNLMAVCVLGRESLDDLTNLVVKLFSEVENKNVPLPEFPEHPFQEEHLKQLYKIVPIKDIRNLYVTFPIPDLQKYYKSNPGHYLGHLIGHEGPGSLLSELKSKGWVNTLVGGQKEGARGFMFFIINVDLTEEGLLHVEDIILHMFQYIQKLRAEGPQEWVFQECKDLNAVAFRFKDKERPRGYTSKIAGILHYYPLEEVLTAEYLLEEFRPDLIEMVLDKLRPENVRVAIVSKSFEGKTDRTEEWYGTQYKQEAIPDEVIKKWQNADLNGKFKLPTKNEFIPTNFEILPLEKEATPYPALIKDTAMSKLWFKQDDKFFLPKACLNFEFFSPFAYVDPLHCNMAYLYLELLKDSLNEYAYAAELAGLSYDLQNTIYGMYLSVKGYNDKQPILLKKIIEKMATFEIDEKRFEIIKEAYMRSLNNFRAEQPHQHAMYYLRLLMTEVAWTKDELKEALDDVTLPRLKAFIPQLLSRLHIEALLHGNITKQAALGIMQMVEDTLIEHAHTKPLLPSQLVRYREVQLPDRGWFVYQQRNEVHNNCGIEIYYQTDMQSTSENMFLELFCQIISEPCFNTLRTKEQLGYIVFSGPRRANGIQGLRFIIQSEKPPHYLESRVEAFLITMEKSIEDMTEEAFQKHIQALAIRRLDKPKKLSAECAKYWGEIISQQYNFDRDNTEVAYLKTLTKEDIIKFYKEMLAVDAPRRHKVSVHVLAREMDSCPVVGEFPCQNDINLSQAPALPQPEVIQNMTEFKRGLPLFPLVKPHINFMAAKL

[10] = alpha-synuclein stem-loop luciferase translation blockers – H4 neuroglioma cells, luminescence, confirmation (AID 1988); type: functional, cell-based
[11] = HEK-293T viability loss after treatment – luminescence, T-cell screen hits, cytotoxicity control for TCR NF-kB inhibitor project, dose response (AID 489026); type: functional, cell-based;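 also: cells exposed to compound about 14 hours before the viability readout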
[12] = Luminescence Cell-Based Dose Response HTS to Identify Inhibitors of 5'UTR Stem-Loop Driven Prion Protein mRNA Translation in H4 Neuroglioblastoma Cells. [Related pubchem assays: 1827 (Project Summary), 1813 (Primary HTS)]; type: functional
Insulin-degrading enzyme [13] = target: T3, Insulin-degrading enzyme; test: recombinant IDE activation, cell-free – biochemical, fluorescence polarization, counter-screen for IDE activator project, dose response (AID 588681)
HEK293 [14] = test: membrane integrity loss in HEK cells – cell-based, fluorescence, cytotoxicity control for IDE activator project, dose response (AID 588440); type: functional; settings: Homo sapiens;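 also: cytotoxicity by LDH release measuring loss of membrane integrity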
[15] = target: T4, DNA repair protein RAD52 homolog (Homo sapiens, UniProt P43351); type: functional, biochemical
T4 sequence (P43351 whole entry): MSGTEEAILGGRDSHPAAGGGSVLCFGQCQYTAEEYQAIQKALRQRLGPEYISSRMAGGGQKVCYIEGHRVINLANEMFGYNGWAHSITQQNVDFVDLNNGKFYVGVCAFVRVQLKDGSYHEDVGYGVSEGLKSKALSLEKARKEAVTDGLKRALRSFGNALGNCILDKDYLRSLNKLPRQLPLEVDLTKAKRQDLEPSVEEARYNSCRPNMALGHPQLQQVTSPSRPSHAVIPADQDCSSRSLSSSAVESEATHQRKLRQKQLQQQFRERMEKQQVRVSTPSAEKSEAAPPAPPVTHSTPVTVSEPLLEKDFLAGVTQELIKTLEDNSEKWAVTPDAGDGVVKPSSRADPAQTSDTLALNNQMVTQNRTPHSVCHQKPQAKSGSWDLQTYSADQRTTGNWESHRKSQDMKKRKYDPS

[16] = target: Heat shock protein HSP 90-alpha (Homo sapiens, UniProt P07900); type: functional, organism-based
[17] = target: T5, Sentrin-specific protease 8 (Homo sapiens, UniProt Q96LD8); type: functional
T5 sequence (Q96LD8 whole entry): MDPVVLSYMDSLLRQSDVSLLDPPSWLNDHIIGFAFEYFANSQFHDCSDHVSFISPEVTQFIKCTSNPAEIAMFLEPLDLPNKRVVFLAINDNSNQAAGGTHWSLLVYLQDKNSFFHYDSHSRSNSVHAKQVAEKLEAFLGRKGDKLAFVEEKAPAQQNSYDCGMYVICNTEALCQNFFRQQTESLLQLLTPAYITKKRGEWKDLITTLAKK

[18] = target: T5, Sentrin-specific protease 8; type: functional; remark: listed apart in the source
[19] = intracellular Trypanosoma cruzi inhibitors in host cells – cell-based, plate reader, cherry-pick samples, set 3, dose response (AID 651818); type: functional;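 also: compounds incubated with infected cells for about four days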

SMILES: COc1ccccc1NC(=O)c1ccc(NC(=O)CSc2nnnn2C)cc1
- IC50 [1]: 35.9 µM (inactive)
- IC50 (Steroidogenic factor 1): 0.77 µM (active)
- IC50 [2]: 0.437 µM (active)
- CC50 [3]: > 40 µM (active)

SMILES: CN(C)CCCNc1nc(-c2ccc(Cl)cc2)nc2ccccc12
- AC50 [4]: 22.5 µM (active)

SMILES: O=C(c1ccco1)N1N=C(c2cccs2)CC1c1ccccc1O (centres undefined)
- IC50 [5]: 12.8 µM (active)
- EC50 [6]: > 53 µM (inactive)
- IC50 [7]: 6.11 µM (active)

SMILES: COc1cc(NC(=O)N2CCNC2=O)cc(C(=O)Nc2cccc(C(F)(F)F)c2)c1
- EC50 (HEK293 [8]): > 54.7 µM (inactive)
- EC50 (Insulin-degrading enzyme [9]): > 54.7 µM (inactive)
- EC50 [10]: 6.31 µM (active)
- IC50 [11]: > 80 µM (inactive)
- EC50 [12]: 9.79 µM (active)
- EC50 (Insulin-degrading enzyme [13]): > 54.7 µM (inactive)
- IC50 (HEK293 [14]): > 89.2 µM (inactive)

SMILES: Cc1ccc(O)c(NC(=S)NC(=O)COc2ccc(Br)cc2)c1
- EC50 (HEK293 [8]): > 55.9 µM (inactive)
- EC50 (Insulin-degrading enzyme [9]): > 54.7 µM (inactive)
- EC50 [6]: 7 µM (active)
- EC50 (Insulin-degrading enzyme [13]): > 54.7 µM (inactive)
- IC50 (HEK293 [14]): 10.7 µM (inactive)

SMILES: COc1cc2nc3c(O)n(CCN(C(C)C)C(C)C)cnc-3c2cc1OC
- AC50 [4]: 47.7 µM (active)

SMILES: O=C(c1ccc([N+](=O)[O-])cc1)N(Cc1ccccc1)Cc1ccccc1
- IC50 [5]: > 20 µM (inactive)
- EC50 [6]: > 53 µM (inactive)
- IC50 [7]: 8.56 µM (active)

SMILES: COc1cc(OC)cc(C(=O)N[C@H](C(=O)OCC(=O)Nc2ccc3c(c2)OCO3)C(C)C)c1
- IC50 [1]: 35.9 µM (inactive)
- IC50 (Steroidogenic factor 1): 5.72 µM (active)
- IC50 [2]: 4.71 µM (active)

SMILES: CCCCCCCCCCCCCCCC[n+]1ccccc1
- AC50 [15]: 5.71 µM (active)
- AC50 [16]: 2.73 µM (active)

SMILES: COc1ccc(CCNC(=O)COC(=O)Cc2ccccc2[N+](=O)[O-])cc1
- IC50 [1]: 35.9 µM (inactive)
- IC50 (Steroidogenic factor 1): 2.36 µM (active)
- IC50 [2]: 35.9 µM (inactive)

SMILES: O=C(Nc1c(-c2ccccc2)n[nH]c1O)c1cccc(C(F)(F)F)c1
- IC50 [17]: 87.3 µM (inactive)
- IC50 [18]: 65.3 µM (inactive)

SMILES: C[C@@H]1CN([C@H](C)CO)C(=O)Cc2cc(N(C)C)ccc2O[C@H]1CN(C)Cc1ccc(C(=O)Nc2ccccc2N)cc1
- AC50 [19]: 3.46 µM (active)

SMILES: C[C@@H]1CN([C@H](C)CO)C(=O)Cc2cc(NC(=O)C3CCCCC3)ccc2O[C@@H]1CN(C)Cc1ccc(Cl)c(Cl)c1
- AC50 [19]: 2.15 µM (active)

SMILES: C[C@H](CO)N1C[C@H](C)[C@H](CN(C)Cc2ccc(-c3ccccc3)cc2)Oc2ccc(NC(=O)Cc3cn(C)c4ccccc34)cc2C1=O
- AC50 [19]: 15 µM (active)

SMILES: O=C(COC(=O)c1ccc([N+](=O)[O-])o1)NC12CC3CC(CC(C3)C1)C2
- IC50 [17]: 5.13 µM (active)
- IC50 [18]: 6.85 µM (active)
